Test results taken from ChEMBL document CHEMBL4420077, “Synaptojanin-2 inhibitors and uses thereof” (2015).
Active and inactive are the calls of the source. The calls are words filed in the database; no cut-off is given here.

Experiments:
[1] = system: MDA-MB-231; settings: Homo sapiens, 10 uM
Description: Inhibition of cell invasion of human MDA-MB-231 cells at 10 uM incubated for 96 hrs by Matrigel based assay

[2] = system: MDA-MB-231; settings: Homo sapiens, 5 mg/kg
Description: Antitumor activity against GFP-expressing human MDA-MB-231 cells xenografted in SCID mouse assessed as reduction in tumor lung micro-metastasis at 5 mg/kg injected twice per week for 6 weeks

Structure (SMILES)	inhibition [1]	inhibition [2]
C/C(=C\CO[C@@H]1O[C@H](CO)[C@@H](O)[C@H](O)[C@H]1O)C(O)CCC(C)(C)O (some centres not stated)	Active	–
Cc1c(O)cc2c(c1O)C(=O)[C@H](O)[C@@H](c1ccc(O)c(O)c1)O2	Active	–
O=C(O)CC(CCc1ccccc1)O[C@H]1O[C@@H](CO)[C@H](O)[C@@H](O)[C@@H]1O (some centres not stated)	–	Active
O=C1C[C@@H](c2ccc(O)c(O)c2)Oc2cc(O[C@@H]3O[C@H](CO)[C@@H](O)[C@H](O)[C@H]3O)cc(O)c21	Active	–
COc1cc(C2c3c(cc(OC)c(O)c3OC)CC(CO)C2COC2OCC(O)C(O)C2O)cc(OC)c1O (configuration not stated)	Active	–
Cc1cc(=O)c2c(O)cc(O)c([C@@H]3O[C@H](CO)[C@@H](O)[C@H](O)[C@H]3O)c2o1	Active	–
COc1cc(O)cc(O)c1C(=O)c1ccc(O)c(O)c1	Active	–
